Values of other authors as cited in patent US20230137840A1, “MINT MASK AND METHODS OF USE THEREOF” (Georgetown University, priority 2016, published 2023).

Legend:
cough reflex = conditions: menthol vapor; taste of sucrose
[1] = target: transient receptor potential melastatin 8 (TRPM8) (Homo sapiens, UniProt Q7Z2W7); conditions: present in cold-sensitive sensory neurons
nasal resistance = conditions: several studies
[2] = test system: patients with chronic cough; conditions: menthol inhalation
cough = conditions: guinea pigs
[3] = target: transient receptor potential ankyrin 1 (TRPA1) (Homo sapiens, UniProt O75762); conditions: irritant-sensing channel
bronchoconstriction = conditions: guinea pigs
chemical irritants = conditions: menthol vapor; irritants including acrolein, acetic acid, cyclohexanone
asthmatics = conditions: nebulized, 10 mg twice daily for four weeks; 23 asthmatics
[4] = test system: upper airway resistance in normal subjects; conditions: inhaled; ten normal subjects
[5] = test system: cough after fiberoptic bronchoscopy; conditions: premedication with 1% menthol inhalation

Sequence of transient receptor potential ankyrin 1 (TRPA1) (O75762 whole entry, species assumed): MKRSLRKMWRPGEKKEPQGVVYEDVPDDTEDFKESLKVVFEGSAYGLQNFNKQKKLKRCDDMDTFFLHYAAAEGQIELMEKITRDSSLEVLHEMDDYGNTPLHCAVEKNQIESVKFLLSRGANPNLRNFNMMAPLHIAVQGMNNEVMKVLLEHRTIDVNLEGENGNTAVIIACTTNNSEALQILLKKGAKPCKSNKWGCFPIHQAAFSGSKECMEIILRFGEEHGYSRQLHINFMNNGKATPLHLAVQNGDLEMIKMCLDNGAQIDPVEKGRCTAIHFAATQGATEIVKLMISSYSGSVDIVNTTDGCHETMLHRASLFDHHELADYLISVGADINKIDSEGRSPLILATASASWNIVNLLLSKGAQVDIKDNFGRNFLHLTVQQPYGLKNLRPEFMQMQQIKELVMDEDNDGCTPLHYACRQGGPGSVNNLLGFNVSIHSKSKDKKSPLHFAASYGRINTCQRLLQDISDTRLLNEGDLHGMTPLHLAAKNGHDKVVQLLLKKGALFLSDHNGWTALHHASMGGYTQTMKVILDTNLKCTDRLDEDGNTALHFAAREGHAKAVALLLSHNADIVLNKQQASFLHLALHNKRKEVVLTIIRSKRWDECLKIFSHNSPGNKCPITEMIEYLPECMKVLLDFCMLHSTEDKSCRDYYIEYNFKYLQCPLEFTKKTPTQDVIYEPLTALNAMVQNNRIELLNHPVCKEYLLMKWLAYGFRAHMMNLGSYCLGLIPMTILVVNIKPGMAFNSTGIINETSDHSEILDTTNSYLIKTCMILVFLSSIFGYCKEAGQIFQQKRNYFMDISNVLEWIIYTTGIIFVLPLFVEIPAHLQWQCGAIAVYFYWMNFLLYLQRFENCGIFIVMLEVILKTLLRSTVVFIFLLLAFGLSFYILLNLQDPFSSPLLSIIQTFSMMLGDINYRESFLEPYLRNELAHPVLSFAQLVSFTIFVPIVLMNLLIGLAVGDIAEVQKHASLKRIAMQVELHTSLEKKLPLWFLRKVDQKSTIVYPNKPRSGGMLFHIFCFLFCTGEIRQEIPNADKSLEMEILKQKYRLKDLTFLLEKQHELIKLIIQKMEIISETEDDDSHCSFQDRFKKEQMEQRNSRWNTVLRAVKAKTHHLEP
Sequence of transient receptor potential melastatin 8 (TRPM8) (Q7Z2W7 whole entry, species assumed): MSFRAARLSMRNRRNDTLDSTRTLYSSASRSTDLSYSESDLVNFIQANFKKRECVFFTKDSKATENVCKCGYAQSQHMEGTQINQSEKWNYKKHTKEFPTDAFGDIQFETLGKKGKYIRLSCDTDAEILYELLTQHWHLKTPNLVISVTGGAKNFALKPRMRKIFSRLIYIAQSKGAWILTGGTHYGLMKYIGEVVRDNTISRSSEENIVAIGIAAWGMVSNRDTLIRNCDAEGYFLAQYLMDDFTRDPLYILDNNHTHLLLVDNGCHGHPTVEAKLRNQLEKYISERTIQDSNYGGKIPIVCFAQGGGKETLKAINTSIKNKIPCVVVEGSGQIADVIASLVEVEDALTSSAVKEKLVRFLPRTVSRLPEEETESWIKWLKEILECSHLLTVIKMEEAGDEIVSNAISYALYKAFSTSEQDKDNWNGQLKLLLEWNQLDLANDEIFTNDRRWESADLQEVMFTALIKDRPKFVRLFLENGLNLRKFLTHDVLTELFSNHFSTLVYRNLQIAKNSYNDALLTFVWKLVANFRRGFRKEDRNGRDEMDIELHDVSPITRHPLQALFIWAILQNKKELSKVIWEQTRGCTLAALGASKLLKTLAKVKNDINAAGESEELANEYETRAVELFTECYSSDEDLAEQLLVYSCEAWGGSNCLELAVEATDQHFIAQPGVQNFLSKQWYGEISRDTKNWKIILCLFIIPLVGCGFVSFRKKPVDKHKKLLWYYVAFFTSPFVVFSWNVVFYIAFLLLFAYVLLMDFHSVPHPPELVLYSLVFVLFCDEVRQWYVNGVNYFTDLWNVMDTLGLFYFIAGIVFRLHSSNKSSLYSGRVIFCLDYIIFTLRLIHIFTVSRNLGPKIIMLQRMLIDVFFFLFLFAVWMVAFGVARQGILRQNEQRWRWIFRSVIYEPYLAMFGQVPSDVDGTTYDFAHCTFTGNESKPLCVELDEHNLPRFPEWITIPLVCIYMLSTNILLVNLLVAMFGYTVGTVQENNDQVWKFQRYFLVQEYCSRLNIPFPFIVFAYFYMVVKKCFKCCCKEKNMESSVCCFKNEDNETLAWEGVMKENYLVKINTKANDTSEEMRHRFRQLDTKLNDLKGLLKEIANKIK

In the case of `OC[C@H]1O[C@@](CO)(O[C@H]2O[C@H](CO)[C@@H](O)[C@H](O)[C@H]2O)[C@@H](O)[C@@H]1O` [sucrose], the “cough reflex to capsaicin challenge” value (cough reflex) is given as “reduced cough reflex”.

In the case of `CC(C)[C@@H]1CC[C@@H](C)C[C@H]1O` [menthol, (1R,2S,5R)-2-Isopropyl-5-methylcyclohexanol], the “interaction with TRPM8” value [1] is listed as “interacts”, the “effect on nasal resistance” value (nasal resistance) is listed as “no effect” and the “cough sensitivity to inhaled capsaicin” value [2] is listed as “reduced cough sensitivity”. For the same compound, the “effect on inspiratory flows” value [2] was “had an effect”, the “antitussive (cough suppressant) effect” value (cough) was “antitussive (cough suppressant) effects” and the “bronchial contraction due to high extracellular potassium” value (bronchial smooth muscle) was “inhibits”. The “bronchial contraction due to methacholine” value (bronchial smooth muscle) was “inhibits”, the “interaction with TRPA1” value [3] was “interacts” and the capsaicin-induced bronchoconstriction (bronchoconstriction) was “attenuates”. For the same compound, the “neurokinin A-induced bronchoconstriction” value (bronchoconstriction) was “attenuates”, the “reactivity to chemical irritants” value (chemical irritants) was “reduces reactivity” and the “diurnal variation in peak expiratory flow rate (PEER)” value (asthmatics) was “decreased”. For the same compound, the “effect on FEV1 (forced expiratory volume at 1 second)” value (asthmatics) was “no effect”, the “effect on VC (vital capacity)” value (asthmatics) was “no effect” and the “use of metered dose inhalers” value (asthmatics) was “reduced use”. For the same compound, the wheezing episodes (asthmatics) was “reduced wheezing episodes”, the “relaxation of bronchi preconstricted with acetylcholine or potassium chloride” value (bronchi) was “relaxes” and the “effect on upper airway resistance” value [4] was “no effect”. For the same compound, the “effect on cough after fiberoptic bronchoscopy” value [5] was “no effect” and the “cough reflex to capsaicin challenge” value (cough reflex) was “reduced cough reflex”.
